Test results reported in PMC9853328, “Potent Platinum(IV) Prodrugs That Incorporate a Biotin Moiety to Selectively Target Cancer Cells” (Pharmaceutics, 2022).
“And” between values parts separate entries of the source, which are not always exact repeats. Equal entries are not always repeated.

What was measured:
Format in all cases: cell-based
[1] = tested on: SJ-G2 glioblastoma cells; assay: MTT in vitro cytotoxicity assay, SJ-G2; details: 72 h drug exposure, n = 3, read-out: GI50 ± SEM, SJ-G2
In short: (§1)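 Growth inhibition is measured by MTT (540 nm) following 72 h treatment of log-phase cells seeded 24 h earlier. GI50 values derive from eight-point curves with day-0 optical density as baseline and are given as mean ± SEM over three occasions.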

[2] = tested on: MCF-7 breast cancer cells; assay: MTT in vitro cytotoxicity assay, MCF-7; details: MTT, 72 h drug exposure, n = 3; read-out: GI50 ± SEM, MCF-7
[3] = tested on: H460 lung cancer cells; assay: MTT in vitro cytotoxicity assay, H460; details: 72 h drug exposure, n = 3, read-out: GI50 ± SEM, H460
In short: as §1

[4] = tested on: panel of cancer cell lines; assay: MTT cytotoxicity averaged across the panel of cancer cell lines
[5] = tested on: MCF10A (healthy breast) cells; assay: Cellular platinum uptake by ICP-MS, MCF10A; details: 1.0 and 0.1 µM, 4 h, among complexes 1–4
Description: (§2) Cellular uptake studies were carried out in MCF-7 (breast cancer) and MCF10A (healthy breast) cell lines. Reported in Table S2 are the numbers of cells per well that were seeded onto 12-well plates for each replicate and cell line. After incubating overnight at 37 °C, the cell culture medium was replaced with fresh media containing the test compounds at concentrations of 1.0 and 0.1 µM. After incubating for 4 h, the medium was removed, the cells were washed with PBS twice, and then incubated with trypsin solution until the cells dissociated from the plate. The harvested cells were then placed into an Eppendorf tube and PBS was added to a volume of 1 mL. Cell numbers were determined using trypan blue staining. Cell pellets were obtained after centrifugation and the cells were dispersed in 50 µL of MilliQ™ water and stored immediately at −20 °C until platinum analysis was conducted. These experiments were repeated in triplicate on three separate occasions.
Sixty-nine percent HNO3 (50 µL) was added to each sample and digested at 80 °C for 1.5 h, before being taken up to 1 mL with H2O. The platinum analysis was conducted using a PerkinElmer (Melbourne, Australia) NexION™ 300X inductively coupled plasma mass spectrometer (ICP-MS). […] The calibration was linear over the working range (R^2 > 0.9999) and the most abundant platinum isotope (m/z = 195) was monitored. […]

[6] = tested on: non-cancerous MCF10A breast cell line; assay: MTT in vitro cytotoxicity assay, MCF10A; details: 72 h drug exposure, n = 3, read-out: GI50 ± SEM, MCF10A
In short: as §1

[7] = tested on: MIA pancreas cancer cells; assay: MTT in vitro cytotoxicity assay, MIA; details: 72 h drug exposure, n = 3, read-out: GI50 ± SEM, MIA
In short: as §1

[8] = tested on: ADDP (subclone of A2780) versus A2780 ovarian cancer cell lines; assay: Resistance factor, GI50 in ADDP/GI50 in A2780
[9] = tested on: MCF-7 (breast cancer) cells; assay: Cellular platinum uptake by ICP-MS, MCF-7; details: 0.1 µM, 4 h, ICP-MS
Description: as §2
Sixty-nine percent HNO3 (50 µL) was added to each sample and digested at 80 °C for 1.5 h, before being taken up to 1 mL with H2O. The platinum analysis was conducted using a PerkinElmer (Melbourne, Australia) NexION™ 300X inductively coupled plasma mass spectrometer (ICP-MS). A four-point calibration curve was produced by serial dilution of a certified platinum reference standard. The calibration was linear over the working range (R^2 > 0.9999) and the most abundant platinum isotope (m/z = 195) was monitored. The average values for three independent experiments were reported with standard deviations.

COc1cc[n+]2c3c1ccc1c(OC)cc[n+](c13)[Pt-2]21([OH])([O]C(=O)CCCC[C@@H]2SC[C@@H]3NC(=O)N[C@@H]32)[NH2+][C@H]2CCCC[C@@H]2[NH2+]1.O=[N+]([O-])[O-].O=[N+]([O-])[O-] [Complex 3, [Pt(4,7-dimethoxy-1,10-phenanthroline)(1S,2S-diaminocyclohexane)(biotin)(hydroxido)](NO3)2]
GI50 [1]: 0.57 ± 0.17 µM | GI50 [2]: 0.099 ± 0.041 µM | GI50 [3]: 0.27 ± 0.03 µM | enhanced activity compared to platinum(II) precursor across the cancer cell lines ([4]; across all cancer cell lines): ~ 1.3 fold | fold more active than cisplatin, on average, against all cancer cells ([4]; average over cancer cell lines): 8 fold | GI50 ([4]; calculated from the panel of cancer cell lines tested (Table S4)): 0.459 µM | cellular platinum uptake in MCF10A (rank) [5]: lowest uptake levels | GI50 [6]: 0.3 ± 0.08 µM | GI50 [7]: 0.18 ± 0.01 µM | Resistance factor (RF) [8]: 0.459 and 0.46 | cellular platinum uptake in MCF-7 [9]: greatest uptake | fold greater uptake in MCF-7 compared to MCF10A [9]: ~3 fold
